Measurements reported in US20020049151A1, “Therapeutic approaches to diseases by suppression of the NURR subfamily of nuclear transcription factors” (priority 2000, published 2002).

Assays:
CRH mRNA = test: RT-PCR of CRH mRNA in primary human synoviocytes; format: cell-based; conditions: primary RA and PsA synoviocytes, 6 h; 10 ng/ml IL-1β, IL-6, TNF, 1 μM PGE2, MoCM; mean +/−SE
Description: To identify the origin of the cells that express CRH, the expression of CRH mRNA in isolated primary human synoviocyte cells was investigated. Synoviocytes are an important source and target cell for IL-1β, TNFα and PGE2 action within inflamed synovial tissue (Bucala et al., 1991). Moreover, these pro-inflammatory agents are important mediators in the pathogenesis of human synovial hyperplasia and cartilage destruction (MacNaul et aL., 1990). […] Representative examples of PCR products generated using synoviocytes maintained under normal conditions (Con), or exposed to 10 ng/ml IL-1β, IL-6, TNF, 1 μM PGE2, MoCM or 25 μM forskolin (FOR) for 6 h. Results were obtained from three separate experiments, using both RA and PsA cell lines. Values shown are the mean +/−SE. The symbol * indicates P<0.01 compared to control. PCR products generated were confirmed by Southern blot analysis using CDNA probes for human CRH and GAPDH.
The regulation of hypothalamic CRH gene expression by activation of adenylate cyclase/protein kinase A signaling pathway has previously been established (Guardiola-diaz et al., 1994). The ability of forskolin (FOR), an adenylate cyclase activating agent, was tested for stimulatory effects on CRH gene expression in primary synoviocytes. […] To determine regulatory signals of peripheral CRH expression the ability of pro-inflammatory agonists to regulate endogenous CRH MRNA was examined. […] Next, a comparison of the ability of individual pro-inflammatory mediators to induce CRH mRNA was performed. […] Levels of GAPDH mRNA remained relatively constant under all conditions tested (FIG. 1D).
Synovial tissue was treated for 4 h with 1 mg/ml collagenase (type I; Worthington Biochemical, Freehold, N.J.) in RPMI at 37° C. in 5% CO2. Dissociated cells were plated in RPMI supplemented with 10% fetal calf serum (GibcoBRL, Paisley, UK), penicillin (100 U/ml), streptomycin (100 U/ml) and fungizone (0.25 μg/ml). […] Twenty-four hours before transfection, 1×10^6 synoviocyte cells were plated in 25 cm^2 dishes and allowed to attach. […] Chloramphenicol acetyl transferase (CAT) levels were measured using a CAT ELISA (Boehringer Mannheim, Germany). Protein concentrations were determined by the Bradford assay (BioRad, Richmond, Calif.). […]

human CRH promoter = test: hCRH-CAT reporter, transient transfection in primary human synoviocytes; format: cell-based; conditions: -666/+111 hCRH-CAT; RA and PsA synoviocytes; 10 ng/ml IL-1β, IL-6, TNFα, 1 μM PGE2, MoCM; 12 h
Method: To determine whether inflammatory mediators are capable of regulating the expression of the human CRH promoter a reporter construct was generated by cloning the proximal promoter region (−666/+111) (SEQ ID NO: 143) of the human CRH gene into the promoterless pBL3-chloramphenicol acetyl transferase (CAT) plasmid to create hCRH-CAT. Transcriptional regulation of the hCRH promoter was measured by transient transfection in primary human synoviocytes. […] Three individual RA and PsA synoviocyte cell lines were transiently transfected with 3 μg -666 /+111 hCRH-CAT reporter plasmid to monitor CRH promoter activity, maintained under normal conditions (Con), or exposed to 10 ng/ml IL-1β, IL-6, TNFα1 μM PGE2, MoCM or 25 μM FOR for 12 h. […] Representative CAT levels produced by transfected cells are illustrated in FIG. 2B.
Synovial tissue was treated for 4 h with 1 mg/ml collagenase (type I; Worthington Biochemical, Freehold, N.J.) in RPMI at 37° C. in 5% CO2. Dissociated cells were plated in RPMI supplemented with 10% fetal calf serum (GibcoBRL, Paisley, UK), penicillin (100 U/ml), streptomycin (100 U/ml) and fungizone (0.25 μg/ml). […] Twenty-four hours before transfection, 1×10^6 synoviocyte cells were plated in 25 cm^2 dishes and allowed to attach. Endotoxin free-DNA ([…] CMV-β-galactosidase or 3 μg -666/+111 hCRH CAT (Murphy and Conneely, 1997) was added to 35 μl lipotaxi reagent (Stratagene, Cambridge, UK) in a volume of 900 μl RPMI (serum free) and incubated at room temperature for 30 min. RPMI (1.5 ml) was added to the transfection mixture, transferred onto the cells and incubated for 6 h at 37° C. in 5% CO2. An equal volume of media was added, and the cells were incubated overnight at 37° C. in 5% CO2. The DNA-lipotaxi containing media was replaced, and the cells were left untreated or treated with 10 ng/ml IL-1β, IL-6, TNFα, 1 μM PGE2 or MoCM and incubated for a further 24 h. Chloramphenicol acetyl transferase (CAT) levels were measured using a CAT ELISA (Boehringer Mannheim, Germany). Protein concentrations were determined by the Bradford assay (BioRad, Richmond, Calif.). For β-galactosidase assays cells were washed with cold phosphate buffered saline (PBS), fixed with cold 0.5% glutaraldehyde and washed twice with PBS before incubation with staining solution (1M MgCl2, 5M NaCL, 0.5M HEPES pH7.3, 30 mM potassium ferricyanide, 30 mM potassium ferrocyanide and 2% 5-bromo-4-chloro-3-indoyl-β-galactopyranoside) for 12 h at 37° C.

NOR1 mRNA = test: Northern analysis of NOR1 mRNA in primary RA synoviocytes; format: cell-based, human; conditions: 1 hour, TNFα 10 ng/mL, PGE2 10^-6 M, vs untreated
Method: The pathological importance of the NURR transcription factors in inflammatory joint disease was further examined by determining the ability of proinflammatory agonists to regulate NOR1 transcript levels in primary synoviocytes. (FIG. 14). Expression levels of NOR1 and NURR1 mRNA increased compared to the untreated synoviocytes upon treatment with TNFα.
Northern analysis of primary RA synoviocytes were untreated (lane 1) or treated for 1 hour with TNFα (lane 2), IL-1β (lane 3), and PGE2 (lane 4). TNFα and IL-1β were used at a concentration of 10 ng/mL and PGE2 was at a concentration of 10^-6 M.
Total RNA was isolated from cultured primary synoviocytes or synovial explants. RNA was quantitated by UV absorption and 10 μg of total RNA were electrophoresed on a standard northern gel and transferred to nylon membrane (BioRad, Richmond, Calif.). NURR1 and NUR77 cDNA probes (Murphy and Conneely, 1997), spanning the amino terminal region to avoid cross-hybridization, were radiolabeled to a high specific activity using [α-^32P] dCTP and a random primer labeling system (Promega, Madison, Wis.). Blots were exposed to film at −80° C. using intensifying screens and autoradiographic intensity was quantitated using an imaging densitometer.

synoviocytes = test: Synoviocyte morphological transformation (fibroblast-like to stellate); format: cell-based, human; conditions: primary PsA synoviocytes, untreated vs TNFα

Molecule	CRH mRNA expression, fold stimulation (CRH mRNA)	transcriptional activity of the hCRH promoter (CAT), fold (human CRH promoter)	NOR1 mRNA expression levels (NOR1 mRNA)	synoviocyte morphology after stimulation (synoviocytes)
CCCCC[C@H](O)/C=C/[C@H]1[C@H](O)CC(=O)[C@@H]1C/C=C\CCCC(=O)O [PGE2, reference compound]	3.85+/−1.5 fold	28.8+/−1.7 fold	only a moderate increase	–
IL-6: pro-inflammatory cytokine	1.5+/−1.2 fold	3.2+/−1.9 fold	–	–
TNFα	3.6+/−2.0 fold	15.6+/−1.9 fold	increased	stellate shape
IL-1β: pro-inflammatory cytokine	2.3+/−1.0 fold	17.1+/−3.1 fold	–	–
